Biological target: Sodium-dependent noradrenaline transporter (Homo sapiens, UniProt P23975)
Test: Ligand Binding Assay

Sequence of Sodium-dependent noradrenaline transporter (P23975 whole entry): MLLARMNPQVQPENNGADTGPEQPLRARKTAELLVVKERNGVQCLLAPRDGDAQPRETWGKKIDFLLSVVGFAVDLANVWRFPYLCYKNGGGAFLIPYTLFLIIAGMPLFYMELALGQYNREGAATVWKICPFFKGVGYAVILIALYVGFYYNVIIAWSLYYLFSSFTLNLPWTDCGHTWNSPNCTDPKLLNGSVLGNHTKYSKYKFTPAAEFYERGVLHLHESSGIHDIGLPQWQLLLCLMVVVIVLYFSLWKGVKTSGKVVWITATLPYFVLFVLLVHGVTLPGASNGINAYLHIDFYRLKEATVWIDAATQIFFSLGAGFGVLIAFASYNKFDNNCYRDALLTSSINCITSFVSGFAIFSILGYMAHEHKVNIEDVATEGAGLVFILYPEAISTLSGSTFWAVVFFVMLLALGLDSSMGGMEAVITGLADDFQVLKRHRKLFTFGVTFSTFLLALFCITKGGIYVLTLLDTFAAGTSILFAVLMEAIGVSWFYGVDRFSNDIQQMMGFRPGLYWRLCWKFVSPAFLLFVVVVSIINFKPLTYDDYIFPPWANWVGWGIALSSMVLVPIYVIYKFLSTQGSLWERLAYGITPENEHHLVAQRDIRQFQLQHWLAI

In order of falling EC50:
1. Cc1ccc([C@H]2C[C@@H]3CC[C@H]([C@H]2c2ncc(-c4ccc(Cl)c(Cl)c4)s2)N3C)cc1 [5-(3,4-dichlorophenyl)-2-[(1R,2S,3S,5S)-8-methyl-3-(4-methylphenyl)-8-azabicyclo[3.2.1]octan-2-yl]-1,3-thiazole]  4 µM
2. COc1ccc(-c2cnc([C@H]3[C@@H](c4ccc(C)cc4)C[C@@H]4CC[C@H]3N4C)s2)cc1 [5-(4-methoxyphenyl)-2-[(1R,2S,3S,5S)-8-methyl-3-(4-methylphenyl)-8-azabicyclo[3.2.1]octan-2-yl]-1,3-thiazole]  1.81 µM
3. CN1[C@H]2CC[C@@H]1[C@@H](c1ncc(-c3ccccc3)s1)[C@@H](c1ccc(Cl)cc1)C2 [2-[(1R,2S,3S,5S)-3-(4-chlorophenyl)-8-methyl-8-azabicyclo[3.2.1]octan-2-yl]-5-phenyl-1,3-thiazole]  0.75 µM

Biological target: Transporter (Rattus norvegicus, UniProt Q63380)
Sequence (Q63380 whole entry): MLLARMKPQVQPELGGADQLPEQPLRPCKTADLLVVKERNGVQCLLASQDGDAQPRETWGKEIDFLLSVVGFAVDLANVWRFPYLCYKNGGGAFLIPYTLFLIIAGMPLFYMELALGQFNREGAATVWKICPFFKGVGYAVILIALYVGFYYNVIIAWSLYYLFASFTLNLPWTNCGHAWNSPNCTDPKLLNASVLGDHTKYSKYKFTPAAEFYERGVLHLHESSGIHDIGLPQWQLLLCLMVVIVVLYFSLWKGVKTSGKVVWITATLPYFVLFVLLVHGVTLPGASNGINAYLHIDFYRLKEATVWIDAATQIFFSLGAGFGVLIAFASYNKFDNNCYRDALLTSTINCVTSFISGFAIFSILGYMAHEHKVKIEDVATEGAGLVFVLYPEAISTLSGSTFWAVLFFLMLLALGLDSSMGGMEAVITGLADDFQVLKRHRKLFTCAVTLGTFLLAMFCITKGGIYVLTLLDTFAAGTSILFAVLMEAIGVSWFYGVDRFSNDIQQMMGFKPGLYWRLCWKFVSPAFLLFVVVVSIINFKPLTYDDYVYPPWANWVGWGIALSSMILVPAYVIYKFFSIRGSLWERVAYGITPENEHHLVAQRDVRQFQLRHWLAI
Test: Ligand Binding Assay
Experimental: Brains from male Sprague-Dawley rats were removed, dissected, and rapidly frozen. Ligand binding experiments were conducted in assay tubes containing radioligand, rat membrane tissue, and test compounds. Incubations were terminated by filtration with through GF/B filters. Results were analyzed using the Equilibrium Binding Data Analysis software (EBDA, Biosoft).

`CN1[C@H]2CC[C@@H]1[C@@H](c1ncc(-c3ccc(Cl)c(Cl)c3)s1)[C@@H](c1ccc(Cl)cc1)C2` [2-[(1R,2S,3S,5S)-3-(4-chlorophenyl)-8-methyl-8-azabicyclo[3.2.1]octan-2-yl]-5-(3,4-dichlorophenyl)-1,3-thiazole] and `Cc1ccc([C@H]2C[C@@H]3CC[C@H]([C@H]2c2ncc(-c4ccc(Cl)c(Cl)c4)s2)N3C)cc1` [5-(3,4-dichlorophenyl)-2-[(1R,2S,3S,5S)-8-methyl-3-(4-methylphenyl)-8-azabicyclo[3.2.1]octan-2-yl]-1,3-thiazole] cannot be ordered by Ki: over 2 µM for the first, over 2 µM for the second.

`COc1ccc(-c2cnc([C@H]3[C@@H](c4ccc(Cl)cc4)C[C@@H]4CC[C@H]3N4C)s2)cc1OC` [2-[(1R,2S,3S,5S)-3-(4-chlorophenyl)-8-methyl-8-azabicyclo[3.2.1]octan-2-yl]-5-(3,4-dimethoxyphenyl)-1,3-thiazole] and `COc1ccc(-c2cnc([C@H]3[C@@H](c4ccc(C)cc4)C[C@@H]4CC[C@H]3N4C)s2)cc1OC` [5-(3,4-dimethoxyphenyl)-2-[(1R,2S,3S,5S)-8-methyl-3-(4-methylphenyl)-8-azabicyclo[3.2.1]octan-2-yl]-1,3-thiazole] cannot be ordered by Ki: over 2 µM for the first, over 2 µM for the second.

`CN1[C@H]2CC[C@@H]1[C@@H](c1ncc(-c3cccc([N+](=O)[O-])c3)s1)[C@@H](c1ccc(Cl)cc1)C2` [2-[(1R,2S,3S,5S)-3-(4-chlorophenyl)-8-methyl-8-azabicyclo[3.2.1]octan-2-yl]-5-(3-nitrophenyl)-1,3-thiazole] and `Cc1ccc([C@H]2C[C@@H]3CC[C@H]([C@H]2c2ncc(-c4cccc([N+](=O)[O-])c4)s2)N3C)cc1` [2-[(1R,2S,3S,5S)-8-methyl-3-(4-methylphenyl)-8-azabicyclo[3.2.1]octan-2-yl]-5-(3-nitrophenyl)-1,3-thiazole] cannot be ordered by Ki: over 2 µM for the first, over 4.3 µM for the second.

`CN1[C@H]2CC[C@@H]1[C@@H](c1ncc(-c3ccc(F)cc3)s1)[C@@H](c1ccc(Cl)cc1)C2` [2-[(1R,2S,3S,5S)-3-(4-chlorophenyl)-8-methyl-8-azabicyclo[3.2.1]octan-2-yl]-5-(4-fluorophenyl)-1,3-thiazole] and `CN1[C@H]2CC[C@@H]1[C@@H](c1ncc(-c3ccc(Br)cc3)s1)[C@@H](c1ccc(Cl)cc1)C2` [5-(4-bromophenyl)-2-[(1R,2S,3S,5S)-3-(4-chlorophenyl)-8-methyl-8-azabicyclo[3.2.1]octan-2-yl]-1,3-thiazole] cannot be ordered by Ki: over 2 µM for the first, over 2 µM for the second.

`COc1ccc(-c2cnc([C@H]3[C@@H](c4ccc(Cl)cc4)C[C@@H]4CC[C@H]3N4C)s2)cc1` [2-[(1R,2S,3S,5S)-3-(4-chlorophenyl)-8-methyl-8-azabicyclo[3.2.1]octan-2-yl]-5-(4-methoxyphenyl)-1,3-thiazole] and `COc1ccc(-c2cnc([C@H]3[C@@H](c4ccc(C)cc4)C[C@@H]4CC[C@H]3N4C)s2)cc1` [5-(4-methoxyphenyl)-2-[(1R,2S,3S,5S)-8-methyl-3-(4-methylphenyl)-8-azabicyclo[3.2.1]octan-2-yl]-1,3-thiazole] cannot be ordered by Ki: over 2 µM for the first, over 2 µM for the second.

`CN1[C@H]2CC[C@@H]1[C@@H](c1ncc(-c3ccc([N+](=O)[O-])cc3)s1)[C@@H](c1ccc(Cl)cc1)C2` [2-[(1R,2S,3S,5S)-3-(4-chlorophenyl)-8-methyl-8-azabicyclo[3.2.1]octan-2-yl]-5-(4-nitrophenyl)-1,3-thiazole] and `Cc1ccc([C@H]2C[C@@H]3CC[C@H]([C@H]2c2ncc(-c4ccc([N+](=O)[O-])cc4)s2)N3C)cc1` [2-[(1R,2S,3S,5S)-8-methyl-3-(4-methylphenyl)-8-azabicyclo[3.2.1]octan-2-yl]-5-(4-nitrophenyl)-1,3-thiazole] cannot be ordered by Ki: over 2 µM for the first, over 2 µM for the second.

`CN1[C@H]2CC[C@@H]1[C@@H](c1ncc(-c3cccc(Br)c3)s1)[C@@H](c1ccc(Cl)cc1)C2` [5-(3-bromophenyl)-2-[(1R,2S,3S,5S)-3-(4-chlorophenyl)-8-methyl-8-azabicyclo[3.2.1]octan-2-yl]-1,3-thiazole] and `Cc1ccc([C@H]2C[C@@H]3CC[C@H]([C@H]2c2ncc(-c4cccc(Br)c4)s2)N3C)cc1` [5-(3-bromophenyl)-2-[(1R,2S,3S,5S)-8-methyl-3-(4-methylphenyl)-8-azabicyclo[3.2.1]octan-2-yl]-1,3-thiazole] cannot be ordered by Ki: over 2 µM for the first, over 2 µM for the second.

`CN1[C@H]2CC[C@@H]1[C@@H](c1ncc(-c3ccc(Cl)cc3)s1)[C@@H](c1ccc(Cl)cc1)C2` [5-(4-chlorophenyl)-2-[(1R,2S,3S,5S)-3-(4-chlorophenyl)-8-methyl-8-azabicyclo[3.2.1]octan-2-yl]-1,3-thiazole] and `Cc1ccc([C@H]2C[C@@H]3CC[C@H]([C@H]2c2ncc(-c4ccc(Cl)cc4)s2)N3C)cc1` [5-(4-chlorophenyl)-2-[(1R,2S,3S,5S)-8-methyl-3-(4-methylphenyl)-8-azabicyclo[3.2.1]octan-2-yl]-1,3-thiazole] cannot be ordered by Ki: over 2 µM for the first, over 2 µM for the second.

Compound `Cc1ccc([C@H]2C[C@@H]3CC[C@H]([C@H]2c2ncc(-c4ccc(F)cc4)s2)N3C)cc1` [5-(4-fluorophenyl)-2-[(1R,2S,3S,5S)-8-methyl-3-(4-methylphenyl)-8-azabicyclo[3.2.1]octan-2-yl]-1,3-thiazole] has a Ki of over 2 µM.

From BindingDB's records for doi:10.1021/jm0703035 (Research Triangle Institute, 2007)
